Data set [1] can be described thus: Oral absorption in rat. It is filed as in vivo.
In data set [2] the target is T1, rat intestinal bile acid transporter (Rattus norvegicus, UniProt Q62633).
T1 sequence (Q62633 1-348): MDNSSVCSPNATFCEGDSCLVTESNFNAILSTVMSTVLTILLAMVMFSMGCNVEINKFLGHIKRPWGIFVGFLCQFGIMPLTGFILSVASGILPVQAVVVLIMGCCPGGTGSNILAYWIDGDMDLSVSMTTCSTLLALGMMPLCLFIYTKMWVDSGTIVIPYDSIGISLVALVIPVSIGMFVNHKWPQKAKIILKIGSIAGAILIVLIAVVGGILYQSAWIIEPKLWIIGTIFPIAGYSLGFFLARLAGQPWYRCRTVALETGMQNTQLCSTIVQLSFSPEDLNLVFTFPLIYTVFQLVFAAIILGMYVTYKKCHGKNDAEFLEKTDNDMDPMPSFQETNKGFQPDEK
Nature of the data set: Substrate activity for the intestinal bile acid transporter. It is filed as cell-based.

On to `COc1ccc2cc(C(C)C(=O)NCCCCC(NC(=O)CCC(C)C3CCC4C5C(O)CC6CC(O)CCC6(C)C5CC(O)C34C)C(=O)O)ccc2c1` (stereo not shown) [Cholyl-Lysine-(ε-Naproxen)-OH], for which the “hydrolysis upon oral absorption (uncharacterized amidase activity) releasing parent drug” value in data set [1] is given as “hydrolyzed”. Besides, the “substrate for the rat intestinal bile acid transporter” value in data set [2] is “retains activity”.
As to “cholyl-lys-(ε-NBD)-OH [cholyl-L-Lys-(ε-NBD)-OH]”, the oral absorption entry in data set [1] (rat) was “effectively absorbed orally”. Further, in data set [2], the “substrate for the rat intestinal bile acid transporter” value is “substrate”.
